Experimental data taken from patent publication US20200330409A1, “INJECTABLE COMPOSITION COMPRISING HYALURONIDASE FOR REMOVING LOCAL FAT” (priority 2019, published 2020).

Test system: local fat
Test: Clinical trials on hyaluronidase unit dose (efficacy threshold, diffusion range)
Type: in vivo
Details: per injection
Procedure: It was ascertained from clinical trials that at the hyaluronidase unit dose of 300 IU to 600 IU, it was possible to ensure adequate fat removing effect while minimizing side effects. It was also shown in clinical trials that at the above dose range, if the injectable composition is administered in a volume of 1 cc containing 300 IU of hyaluronidase, the diameter of the diffusion range is about 1 cm. Thus, with the hyaluronidase dose set at 300 IU to 600 IU, by injecting the composition at a volume of 0.5 to 2 cc depending on the hyaluronidase dose and with an interval of 0.5 to 1.5 cm between injection points, injection at narrow intervals is possible, and consequently, lipolysis occurs evenly. Furthermore, a lifting effect occurs concomitantly where skin resilience is improved by the promotion of collagen production through the stimulation of skin by the injection needle. […] Thus, by administering an injectable composition of the present disclosure having the above compositional ranges, the side effects from drug use are minimized while fat removal over a wide area can be carried out using minimal volumes. It was shown in clinical trials that at a hyaluronidase dose of 300 IU, the diameter of the diffusion range for the injectable composition is about 1 cm. […]

hyaluronidase
minimum amount of hyaluronidase exhibiting efficacy: 300 IU
